Tested on: Anguilla japonica leptocephali
Assay: Induction of Anguilla japonica metamorphosis by T4 treatment in 23° C. breeding water
Format: in vivo
Set-up: key: L: During life, no characteristics of metamorphosis seen.; Stage 1: Starting phase of metamorphosis. The rostral end is rounded, and intestinal degeneration starts.; Stage 2: Peak phase of metamorphosis. Intestinal degeneration becomes pronounced.; Stage 3: Late phase of metamorphosis.; Stage 4: Pre-glass eel stage. Almost the eel form, but the body height still remains
From the text: Stage 1: Starting phase of metamorphosis. The rostral end is rounded, and intestinal degeneration starts.
Stage 2: Peak phase of metamorphosis. Intestinal degeneration becomes pronounced. In the second half, the anus reaches to near the last vertical blood vessel (VBV last).
Stage 3: Late phase of metamorphosis. The preanal length (PAL) becomes equal to or shorter than the last vertical blood vessel length (VBV last Length) (PAL VBV last Length). The body height is apparently low.
Stage 4: Pre-glass eel stage. Almost the eel form, but the body height still remains. Melanophores on the body surface or endogenous melanophores are not yet seen.
Elver stage: Juvenile stage. Food intake can be identified.
A thyroid hormone (e.g., thyroxine (T4)) is adjusted to 50 to 100 mM in a 1- to 2-mL volume messflask. As a solvent, known solvents (water, alcohol) can be used. Ethanol is preferably used as the solvent.
For example, using ethanol as a solvent, T4 adjusted to 50 mM is diluted 500-fold, 5,000-fold, and 50,000-fold, respectively, and adjusted to […], 1 μM, and 100 nM. A feed can be prepared in this manner.
Artificial seawater is added to a breeding vessel, and 1/1000 of the […] T4 is added to prepare […] T4 breeding water.
Half of the breeding water is replaced every two days with breeding water of the same concentration. In the case where the concentration is changed, for example, in the case of changing from 10 nM to 2 nM, 80% to the breeding water is removed, and unadjusted artificial seawater is newly added to make 1 L.
Leptocephali visually considered to have reached a total length of 40 mm (or may be 30 mm to 50 mm, may be 35 mm to 45 mm, or may also be 35 mm or more, 40 mm or more, or 45 mm or more) are selected, anesthetized with 2-phenoxyethanol, and then photographed, and the total length of each larva is measured using an image analyzing device.
The larvae are placed in 10 nM T4 breeding water and then placed in an incubator set at 23° C., and breeding is started. In first one week, observation is performed every two days, and half of the 10 nM T4 breeding water is replaced each time. The average amount of thyroid hormone in the breeding water in stage 1 is 1 nM to 100 nM, for example, and may also be 3 nM to 30 nM, or 5 nM to 20 nM.
For larvae visually judged to have reached the second half of stage 2, the concentration of the breeding water is changed. The breeding water is diluted 5-fold or 10-fold and adjusted to 2 nM or 1 nM T4, and breeding is continued. The average amount of thyroid hormone in the breeding water in stage 2 may be, as compared with the breeding water of stage 1, diluted 2-fold to 20-fold, diluted 3 to 15-fold, or diluted 5 to 10-fold as described above. The average amount of thyroid hormone in the breeding water in stage 2 is 0.1 nM to 20 nM, for example, and may also be 0.5 nM to 10 nM, 1 nM to 5 nM, or 1 nM to 2 nM.
For larvae visually judged to have reached stage 3, the breeding water is quickly changed 0.2 nM T4 breeding water, which is a 5-fold dilution of 1 nM T4 breeding water, and further changed to 0.1 nM T4 breeding water on the following day. […] Also, in larvae whose anus position has not reached the last vertical hemal spine, when they are judged to be on the brink of stage 3, the concentration is changed as above. The average amount of thyroid hormone in the breeding water in stage 3 may be, as compared with the breeding water of stage 2, diluted 2-fold to 50-fold, diluted 3 to 15-fold, diluted 4 to 6-fold, or diluted 5-fold as described above. The average amount of thyroid hormone in the breeding water in stage 3 is 0.01 nM to 2 nM, for example, and may also be 0.05 nM to 1 nM, 0.1 nM to 0.5 nM, or 0.1 nM to 0.2 nM. […] That is, the concentration may be changed such that the thyroid hormone becomes undetectable in the breeding water in the course of stage 3.
In stage 3, breeding is continuously performed in the 0.1 nM T4 breeding water. […]

SMILES: N[C@@H](Cc1cc(I)c(Oc2cc(I)c(O)c(I)c2)c(I)c1)C(=O)O [T4, thyroxine]
- metamorphosis stage (individual Exp 5-5, 174 days old, total length 36.1 mm at start, c3 onward = treatment days 1,3,5,7,8,9,10,11,12,13,14,15,16,17, T4 (nM) 10,10,10,10,10,10,10,2,0.2,0.1,0.1,0.1,0.1,0.1, treatment day 16, T4 0.1 nM): 3
- metamorphosis stage (individual Exp 5-5, 174 days old, total length 36.1 mm at start, c3 onward = treatment days 1,3,5,7,8,9,10,11,12,13,14,15,16,17, T4 (nM) 10,10,10,10,10,10,10,2,0.2,0.1,0.1,0.1,0.1,0.1, treatment day 17, T4 0.1 nM): 4
- metamorphosis stage (individual Exp 6-2, 129 days old, total length 38.1 mm at start, c3 onward = treatment days 1,3,5,7,9,10,11,12,13,14,15,16,17,18, T4 (nM) 10,10,10,10,10,2,0.2,0.1,0.1,0.1,0.1,0.1,0.1,0.1): 3
- metamorphosis stage (individual Exp. 5-1, 175 days old, total length 38.5 mm at start, c3 onward = treatment days 1,3,5,7,8,9,10,11,12,13,14,15,16,17,18, T4 (nM) 10,10,10,10,2,1,0.2,0.1,0.1,0.1,0.1,0.1, treatment day 1, T4 10 nM): L
- metamorphosis stage (individual Exp. 5-1, 175 days old, total length 38.5 mm at start, c3 onward = treatment days 1,3,5,7,8,9,10,11,12,13,14,15,16,17,18, T4 (nM) 10,10,10,10,2,1,0.2,0.1,0.1,0.1,0.1,0.1, treatment day 3, T4 10 nM): L
- metamorphosis stage (individual Exp. 5-1, 175 days old, total length 38.5 mm at start, c3 onward = treatment days 1,3,5,7,8,9,10,11,12,13,14,15,16,17,18, T4 (nM) 10,10,10,10,2,1,0.2,0.1,0.1,0.1,0.1,0.1, treatment day 5, T4 10 nM): 1
- metamorphosis stage (individual Exp. 5-1, 175 days old, total length 38.5 mm at start, c3 onward = treatment days 1,3,5,7,8,9,10,11,12,13,14,15,16,17,18, T4 (nM) 10,10,10,10,2,1,0.2,0.1,0.1,0.1,0.1,0.1, treatment day 7, T4 10 nM): 2
- metamorphosis stage (individual Exp. 5-1, 175 days old, total length 38.5 mm at start, c3 onward = treatment days 1,3,5,7,8,9,10,11,12,13,14,15,16,17,18, T4 (nM) 10,10,10,10,2,1,0.2,0.1,0.1,0.1,0.1,0.1, treatment day 8, T4 2 nM): 2
- metamorphosis stage (individual Exp. 5-1, 175 days old, total length 38.5 mm at start, c3 onward = treatment days 1,3,5,7,8,9,10,11,12,13,14,15,16,17,18, T4 (nM) 10,10,10,10,2,1,0.2,0.1,0.1,0.1,0.1,0.1, treatment day 9, T4 1 nM): 2
- metamorphosis stage (individual Exp. 5-1, 175 days old, total length 38.5 mm at start, c3 onward = treatment days 1,3,5,7,8,9,10,11,12,13,14,15,16,17,18, T4 (nM) 10,10,10,10,2,1,0.2,0.1,0.1,0.1,0.1,0.1, treatment day 10, T4 0.2 nM): 3
- metamorphosis stage (individual Exp. 5-1, 175 days old, total length 38.5 mm at start, c3 onward = treatment days 1,3,5,7,8,9,10,11,12,13,14,15,16,17,18, T4 (nM) 10,10,10,10,2,1,0.2,0.1,0.1,0.1,0.1,0.1, treatment day 11, T4 0.1 nM): 3
- metamorphosis stage (individual Exp. 5-1, 175 days old, total length 38.5 mm at start, c3 onward = treatment days 1,3,5,7,8,9,10,11,12,13,14,15,16,17,18, T4 (nM) 10,10,10,10,2,1,0.2,0.1,0.1,0.1,0.1,0.1, treatment day 12, T4 0.1 nM): 3
- metamorphosis stage (individual Exp. 5-1, 175 days old, total length 38.5 mm at start, c3 onward = treatment days 1,3,5,7,8,9,10,11,12,13,14,15,16,17,18, T4 (nM) 10,10,10,10,2,1,0.2,0.1,0.1,0.1,0.1,0.1, treatment day 13, T4 0.1 nM): 3
- metamorphosis stage (individual Exp. 5-1, 175 days old, total length 38.5 mm at start, c3 onward = treatment days 1,3,5,7,8,9,10,11,12,13,14,15,16,17,18, T4 (nM) 10,10,10,10,2,1,0.2,0.1,0.1,0.1,0.1,0.1, treatment day 14, T4 0.1 nM): 3
- metamorphosis stage (individual Exp. 5-1, 175 days old, total length 38.5 mm at start, c3 onward = treatment days 1,3,5,7,8,9,10,11,12,13,14,15,16,17,18, T4 (nM) 10,10,10,10,2,1,0.2,0.1,0.1,0.1,0.1,0.1, treatment day 15, T4 0.1 nM): 4
- metamorphosis stage (individual Exp. 5-2, 175 days old, total length 41.3 mm at start, c3 onward = treatment days 1,3,5,7,8,9,10,11,12,13,14,15,16,17,18, T4 (nM) 10,10,10,10,2,1,0.2,0.1,0.1,0.1,0.1,0.1, treatment day 1, T4 10 nM): L
- metamorphosis stage (individual Exp. 5-2, 175 days old, total length 41.3 mm at start, c3 onward = treatment days 1,3,5,7,8,9,10,11,12,13,14,15,16,17,18, T4 (nM) 10,10,10,10,2,1,0.2,0.1,0.1,0.1,0.1,0.1, treatment day 3, T4 10 nM): L
- metamorphosis stage (individual Exp. 5-2, 175 days old, total length 41.3 mm at start, c3 onward = treatment days 1,3,5,7,8,9,10,11,12,13,14,15,16,17,18, T4 (nM) 10,10,10,10,2,1,0.2,0.1,0.1,0.1,0.1,0.1, treatment day 5, T4 10 nM): 2
- metamorphosis stage (individual Exp. 5-2, 175 days old, total length 41.3 mm at start, c3 onward = treatment days 1,3,5,7,8,9,10,11,12,13,14,15,16,17,18, T4 (nM) 10,10,10,10,2,1,0.2,0.1,0.1,0.1,0.1,0.1, treatment day 7, T4 10 nM): 2
- metamorphosis stage (individual Exp. 5-2, 175 days old, total length 41.3 mm at start, c3 onward = treatment days 1,3,5,7,8,9,10,11,12,13,14,15,16,17,18, T4 (nM) 10,10,10,10,2,1,0.2,0.1,0.1,0.1,0.1,0.1, treatment day 8, T4 2 nM): 2
- metamorphosis stage (individual Exp. 5-2, 175 days old, total length 41.3 mm at start, c3 onward = treatment days 1,3,5,7,8,9,10,11,12,13,14,15,16,17,18, T4 (nM) 10,10,10,10,2,1,0.2,0.1,0.1,0.1,0.1,0.1, treatment day 9, T4 1 nM): 2
- metamorphosis stage (individual Exp. 5-2, 175 days old, total length 41.3 mm at start, c3 onward = treatment days 1,3,5,7,8,9,10,11,12,13,14,15,16,17,18, T4 (nM) 10,10,10,10,2,1,0.2,0.1,0.1,0.1,0.1,0.1, treatment day 10, T4 0.2 nM): 3
- metamorphosis stage (individual Exp. 5-2, 175 days old, total length 41.3 mm at start, c3 onward = treatment days 1,3,5,7,8,9,10,11,12,13,14,15,16,17,18, T4 (nM) 10,10,10,10,2,1,0.2,0.1,0.1,0.1,0.1,0.1, treatment day 11, T4 0.1 nM): 3
- metamorphosis stage (individual Exp. 5-2, 175 days old, total length 41.3 mm at start, c3 onward = treatment days 1,3,5,7,8,9,10,11,12,13,14,15,16,17,18, T4 (nM) 10,10,10,10,2,1,0.2,0.1,0.1,0.1,0.1,0.1, treatment day 12, T4 0.1 nM): 3
- metamorphosis stage (individual Exp. 5-2, 175 days old, total length 41.3 mm at start, c3 onward = treatment days 1,3,5,7,8,9,10,11,12,13,14,15,16,17,18, T4 (nM) 10,10,10,10,2,1,0.2,0.1,0.1,0.1,0.1,0.1, treatment day 13, T4 0.1 nM): 3

From patent publication US20200093103A1, “BREEDING WATER FOR ANGUILLIFORMES AND METHOD FOR REARING ANGUILLIFORMES” (SHIN NIPPON BIOMEDICAL LABORATORIES, LTD., priority 2016, published 2020)
